How the values were obtained:
Type in all cases: in vivo
[1] = system: barnyardgrass (Echinochloa crus-galli, ECHCG); experiment: Pre-emerge test, greenhouse herbicide activity screening; conditions: pre-emerge; for Pre-emerge Herbicidal Activity ECHCG: phytotoxicity rating 0-100 at 14 days after application; for phytotoxicity rating ECHCG: 14 days after application, scale 0-100
Outline: (§1)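 Compounds in acetone were track-sprayed at 15-1000 g ai/ha (187 l/ha) on sandy loam pots: pre-emerge one day after seeding, post-emerge at 2-3 leaf stage with 0.25% v/v non-ionic surfactant. Phytotoxicity was rated 14 days later on a 0 (no damage) to 100 (complete death) scale.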

[2] = system: green foxtail (Setaria viridis, SETVI); experiment: as above; conditions: pre-emerge; for Pre-emerge Herbicidal Activity SETVI: phytotoxicity rating 0-100 at 14 days after application; for phytotoxicity rating SETVI: 14 days after application, scale 0-100
Outline: as §1

[3] = system: sicklepod (Cassia obtusifolia, CASOB); experiment: as above; conditions: pre-emerge; for Pre-emerge Herbicidal Activity CASOB: phytotoxicity rating 0-100 at 14 days after application; for phytotoxicity rating CASOB: 14 days after application, scale 0-100
Outline: as §1

[4] = system: velvetleaf (Abutilon theophrasti, ABUTH); experiment: as above; conditions: pre-emerge; for Pre-emerge Herbicidal Activity ABUTH: phytotoxicity rating 0-100 at 14 days after application; for phytotoxicity rating ABUTH: 14 days after application, scale 0-100
Outline: as §1

[5] = system: ivyleaf morningglory (Ipomoea hederacea, IPOHE); experiment: as above; conditions: pre-emerge; for Pre-emerge Herbicidal Activity IPOHE: phytotoxicity rating 0-100 at 14 days after application; for phytotoxicity rating IPOHE: 14 days after application, scale 0-100
Outline: as §1

[6] = system: lambsquarters (Chenopodium album, CHEAL); experiment: as above; conditions: pre-emerge; for Pre-emerge Herbicidal Activity CHEAL: phytotoxicity rating 0-100 at 14 days after application; for phytotoxicity rating CHEAL: 14 days after application, scale 0-100
Outline: as §1

[7] = system: large crabgrass (Digitaria sanguinalis, DIGSA); experiment: as above; conditions: pre-emerge; for Pre-emerge Herbicidal Activity DIGSA: phytotoxicity rating 0-100 at 14 days after application; for phytotoxicity rating DIGSA: 14 days after application, scale 0-100
Outline: as §1

[8] = system: barnyardgrass (Echinochloa crus-galli, ECHCG); experiment: Post-emerge test, greenhouse herbicide activity screening; conditions: post-emerge; for Post-emerge Herbicidal Activity ECHCG: phytotoxicity rating 0-100 at 14 days after application; for ECHCG phytotoxicity rating: 14 days after application, rating scale 0-100
Outline: (§2)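 Sandy loam pots; pre-emerge: sown 1 d pre-spray, surface-watered after, then bottom-watered. Post-emerge: sown 8–21 d before, 2–3 leaf stage, + 0.25% v/v NIS, bottom-watered. Acetone, 187 l/ha track spray, 15–1000 g ai/ha. 0–100 injury score, day 14.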

[9] = system: green foxtail (Setaria viridis, SETVI); experiment: as above; conditions: post-emerge; for Post-emerge Herbicidal Activity SETVI: phytotoxicity rating 0-100 at 14 days after application; for SETVI phytotoxicity rating: 14 days after application, rating scale 0-100
Outline: as §2

[10] = system: sicklepod (Cassia obtusifolia, CASOB); experiment: as above; conditions: post-emerge; for Post-emerge Herbicidal Activity CASOB: phytotoxicity rating 0-100 at 14 days after application; for CASOB phytotoxicity rating: 14 days after application, rating scale 0-100
Outline: as §2

[11] = system: johnsongrass (Sorghum halepense, SORHA); experiment: as above; conditions: post-emerge; for Post-emerge Herbicidal Activity SORHA: phytotoxicity rating 0-100 at 14 days after application; for SORHA phytotoxicity rating: 14 days after application, rating scale 0-100
Outline: as §2

[12] = system: redroot pigweed (Amaranthus retroflexus, AMARE); experiment: as above; conditions: post-emerge; for Post-emerge Herbicidal Activity AMARE: phytotoxicity rating 0-100 at 14 days after application; for AMARE phytotoxicity rating: 14 days after application, rating scale 0-100
Outline: as §2

[13] = system: velvetleaf (Abutilon theophrasti, ABUTH); experiment: as above; conditions: post-emerge; for Post-emerge Herbicidal Activity ABUTH: phytotoxicity rating 0-100 at 14 days after application; for ABUTH phytotoxicity rating: 14 days after application, rating scale 0-100
Outline: as §2

[14] = system: ivyleaf morningglory (Ipomoea hederacea, IPOHE); experiment: as above; conditions: post-emerge; for Post-emerge Herbicidal Activity IPOHE: phytotoxicity rating 0-100 at 14 days after application; for IPOHE phytotoxicity rating: 14 days after application, rating scale 0-100
Outline: as §2

[15] = system: lambsquarters (Chenopodium album, CHEAL); experiment: as above; conditions: post-emerge; for Post-emerge Herbicidal Activity CHEAL: phytotoxicity rating 0-100 at 14 days after application; for CHEAL phytotoxicity rating: 14 days after application, rating scale 0-100
Outline: as §2

[16] = system: large crabgrass (Digitaria sanguinalis, DIGSA); experiment: as above; conditions: post-emerge; for Post-emerge Herbicidal Activity DIGSA: phytotoxicity rating 0-100 at 14 days after application; for DIGSA phytotoxicity rating: 14 days after application, rating scale 0-100
Outline: as §2

[17] = system: upland rice (Oryza sp., var. Tebonnet, RICE); experiment: Post-emerge test, crop safety; conditions: post-emerge; for Post-emerge Herbicidal Activity RICE: crop damage rating 0-100 at 14 days after application; for RICE phytotoxicity rating (crop damage): 14 days after application, rating scale 0-100
Outline: as §1

[18] = system: field corn (Zea mays L., var. Dekalb 535, CORN); experiment: Post-emerge test, crop safety; conditions: post-emerge; for Post-emerge Herbicidal Activity CORN: crop damage rating 0-100 at 14 days after application; for CORN phytotoxicity rating (crop damage): 14 days after application, rating scale 0-100
Outline: as §1

[19] = system: redroot pigweed (Amaranthus retroflexus, AMARE); experiment: Pre-emerge test, greenhouse herbicide activity screening; conditions: pre-emerge; for Pre-emerge Herbicidal Activity AMARE: phytotoxicity rating 0-100 at 14 days after application; for phytotoxicity rating AMARE: 14 days after application, scale 0-100
Outline: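 Plants grown in 10 cm pots of sandy loam mix received acetone-dissolved compounds through a moving flat-fan nozzle. Doses ranged from 15 to 1000 g ai/ha. Pre-emerge pots were seeded one day earlier, post-emerge pots 8–21 days earlier. Fourteen days on, each pot was graded 0–100 for damage.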

[20] = system: upland rice (Oryza sp., var. Tebonnet, RICE); experiment: Pre-emerge test, crop safety; conditions: pre-emerge; for Pre-emerge Herbicidal Activity RICE: crop damage, phytotoxicity rating 0-100 at 14 days after application; for phytotoxicity rating RICE (crop damage): 14 days after application, scale 0-100
Outline: (§3)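 Herbicidal damage is scored 0 (none) to 100 (complete plant death) two weeks after a simulated field spray. Rates span 15–1000 g ai/ha, delivered in acetone at 187 l/ha. For post-emergence treatments, plants have 2–3 leaves and the spray carries 0.25% v/v non-ionic surfactant.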

[21] = system: field corn (Zea mays L., var. Dekalb 535, CORN); experiment: Pre-emerge test, crop safety; conditions: pre-emerge; for Pre-emerge Herbicidal Activity CORN: crop damage, phytotoxicity rating 0-100 at 14 days after application; for phytotoxicity rating CORN (crop damage): 14 days after application, scale 0-100
Outline: as §3

## Cc1c(Cl)cc(F)c(-n2c(=O)cc(C(F)(F)F)n(C)c2=O)c1NC(=O)SCc1ccccc1 [4-66]
[1]; rate 63 g ai/ha
  Pre-emerge Herbicidal Activity ECHCG: 30
[1]; rate 250 g ai/ha
  Pre-emerge Herbicidal Activity ECHCG: 90
[2]; rate 63 g ai/ha
  Pre-emerge Herbicidal Activity SETVI: 70
[2]; rate 250 g ai/ha
  Pre-emerge Herbicidal Activity SETVI: 100
[3]; rate 63 g ai/ha
  Pre-emerge Herbicidal Activity CASOB: 30
[3]; rate 250 g ai/ha
  Pre-emerge Herbicidal Activity CASOB: 70
[4]; rate 63 g ai/ha
  Pre-emerge Herbicidal Activity ABUTH: 100
[4]; rate 250 g ai/ha
  Pre-emerge Herbicidal Activity ABUTH: 100
[5]; rate 63 g ai/ha
  Pre-emerge Herbicidal Activity IPOHE: 60
[5]; rate 250 g ai/ha
  Pre-emerge Herbicidal Activity IPOHE: 90
[6]; rate 63 g ai/ha
  Pre-emerge Herbicidal Activity CHEAL: 100
[6]; rate 250 g ai/ha
  Pre-emerge Herbicidal Activity CHEAL: 100
[7]; rate 63 g ai/ha
  Pre-emerge Herbicidal Activity DIGSA: 80
[7]; rate 250 g ai/ha
  Pre-emerge Herbicidal Activity DIGSA: 100
[8]; 63 g ai/ha
  Post-emerge Herbicidal Activity ECHCG: 0
[8]; 250 g ai/ha
  Post-emerge Herbicidal Activity ECHCG: 40
[9]; 63 g ai/ha
  Post-emerge Herbicidal Activity SETVI: 10
[9]; 250 g ai/ha
  Post-emerge Herbicidal Activity SETVI: 60
[10]; 63 g ai/ha
  Post-emerge Herbicidal Activity CASOB: 20
[10]; 250 g ai/ha
  Post-emerge Herbicidal Activity CASOB: 90
[11]; 63 g ai/ha
  Post-emerge Herbicidal Activity SORHA: 0
[11]; 250 g ai/ha
  Post-emerge Herbicidal Activity SORHA: 50
[12]; 63 g ai/ha
  Post-emerge Herbicidal Activity AMARE: 80
[12]; 250 g ai/ha
  Post-emerge Herbicidal Activity AMARE: 100
[13]; 63 g ai/ha
  Post-emerge Herbicidal Activity ABUTH: 100
[13]; 250 g ai/ha
  Post-emerge Herbicidal Activity ABUTH: 100
[14]; 63 g ai/ha
  Post-emerge Herbicidal Activity IPOHE: 100
[14]; 250 g ai/ha
  Post-emerge Herbicidal Activity IPOHE: 100
[15]; 63 g ai/ha
  Post-emerge Herbicidal Activity CHEAL: 80
[15]; 250 g ai/ha
  Post-emerge Herbicidal Activity CHEAL: 100
[16]; 63 g ai/ha
  Post-emerge Herbicidal Activity DIGSA: 10
[16]; 250 g ai/ha
  Post-emerge Herbicidal Activity DIGSA: 50
[17]; 63 g ai/ha
  Post-emerge Herbicidal Activity RICE: 30
[17]; 250 g ai/ha
  Post-emerge Herbicidal Activity RICE: 70
[18]; 63 g ai/ha
  Post-emerge Herbicidal Activity CORN: 15
[18]; 250 g ai/ha
  Post-emerge Herbicidal Activity CORN: 60
[19]; rate 63 g ai/ha
  Pre-emerge Herbicidal Activity AMARE: 100
[19]; rate 250 g ai/ha
  Pre-emerge Herbicidal Activity AMARE: 100
[20]; rate 63 g ai/ha
  Pre-emerge Herbicidal Activity RICE: 20
[20]; rate 250 g ai/ha
  Pre-emerge Herbicidal Activity RICE: 65
[21]; rate 63 g ai/ha
  Pre-emerge Herbicidal Activity CORN: 0
[21]; rate 250 g ai/ha
  Pre-emerge Herbicidal Activity CORN: 50

## COc1ccccc1C=CC(=O)Nc1c(OC)c(Cl)cc(F)c1-n1c(=O)cc(C(F)(F)F)n(C)c1=O [2-127]
[1]; 63 g ai/ha
  phytotoxicity rating ECHCG: 0
[1]; 250 g ai/ha
  phytotoxicity rating ECHCG: 40
[2]; 63 g ai/ha
  phytotoxicity rating SETVI: 20
[2]; 250 g ai/ha
  phytotoxicity rating SETVI: 80
[3]; 63 g ai/ha
  phytotoxicity rating CASOB: 0
[3]; 250 g ai/ha
  phytotoxicity rating CASOB: 40
[4]; 63 g ai/ha
  phytotoxicity rating ABUTH: 100
[4]; 250 g ai/ha
  phytotoxicity rating ABUTH: 100
[5]; 63 g ai/ha
  phytotoxicity rating IPOHE: 0
[5]; 250 g ai/ha
  phytotoxicity rating IPOHE: 50
[6]; 63 g ai/ha
  phytotoxicity rating CHEAL: 100
[6]; 250 g ai/ha
  phytotoxicity rating CHEAL: 100
[7]; 63 g ai/ha
  phytotoxicity rating DIGSA: 30
[7]; 250 g ai/ha
  phytotoxicity rating DIGSA: 100
[8]; 63 g ai/ha
  ECHCG phytotoxicity rating: 30
[8]; 250 g ai/ha
  ECHCG phytotoxicity rating: 20
[9]; 63 g ai/ha
  SETVI phytotoxicity rating: 30
[9]; 250 g ai/ha
  SETVI phytotoxicity rating: 40
[10]; 63 g ai/ha
  CASOB phytotoxicity rating: 100
[10]; 250 g ai/ha
  CASOB phytotoxicity rating: 60
[11]; 63 g ai/ha
  SORHA phytotoxicity rating: 20
[11]; 250 g ai/ha
  SORHA phytotoxicity rating: 20
[12]; 63 g ai/ha
  AMARE phytotoxicity rating: 100
[12]; 250 g ai/ha
  AMARE phytotoxicity rating: 100
[13]; 63 g ai/ha
  ABUTH phytotoxicity rating: 100
[13]; 250 g ai/ha
  ABUTH phytotoxicity rating: 100
[14]; 63 g ai/ha
  IPOHE phytotoxicity rating: 100
[14]; 250 g ai/ha
  IPOHE phytotoxicity rating: 95
[15]; 63 g ai/ha
  CHEAL phytotoxicity rating: 70
[15]; 250 g ai/ha
  CHEAL phytotoxicity rating: 100
[16]; 63 g ai/ha
  DIGSA phytotoxicity rating: 20
[16]; 250 g ai/ha
  DIGSA phytotoxicity rating: 30
[17]; 63 g ai/ha
  RICE phytotoxicity rating (crop damage): 30
[17]; 250 g ai/ha
  RICE phytotoxicity rating (crop damage): 35
[18]; 63 g ai/ha
  CORN phytotoxicity rating (crop damage): 10
[18]; 250 g ai/ha
  CORN phytotoxicity rating (crop damage): 15
[19]; 63 g ai/ha
  phytotoxicity rating AMARE: 90
[19]; 250 g ai/ha
  phytotoxicity rating AMARE: 100
[20]; 63 g ai/ha
  phytotoxicity rating RICE (crop damage): 0
[20]; 250 g ai/ha
  phytotoxicity rating RICE (crop damage): 10
[21]; 63 g ai/ha
  phytotoxicity rating CORN (crop damage): 0
[21]; 250 g ai/ha
  phytotoxicity rating CORN (crop damage): 0

Reference: US6355799B1, “Substituted benzene compounds, process for their preparation, and herbicidal and defoliant compositions containing them” (ISK Americas Incorporated, priority 1997, dated 2002)
